# Laboratory results as given in patent US20250034210A1, “DLL3 TARGETING PEPTIDES AND CONSTRUCTS THEREOF” (MARIANA ONCOLOGY INC., priority 2023, published 2025).
# *1 amine or outer side, *2 acyl side, *3 side chain or, on linkers, in order; H or OH if unused. Where a SMILES comes first, the peptide text is derived from it. Bridges are numbered along the chain shown (N, C = ends). [ ]: non-standard residue; d: D form. The star is where a group is joined. DOTA = O=C(O)CN1CCN(CC(=O)O)CCN(CC(=O)*)CCN(CC(=O)O)CC1; γGlu = O=C(O)[C@H](CCC(=O)[*:2])N[*:1]; Ahx = NCCCCCC(=O)O
# How the values were obtained:
# human DLL3 = target: T1, human DLL3 (Homo sapiens, UniProt Q9NYJ7); assay: Affinity determination by Surface Plasmon Resonance (SPR), biotinylated human DLL3 immobilized on streptavidin sensor chip; conditions: 25° C., Biacore, 1:1 binding model
# T1 construct: biotin (biotinylated)
# T1 sequence (Q9NYJ7 27-618): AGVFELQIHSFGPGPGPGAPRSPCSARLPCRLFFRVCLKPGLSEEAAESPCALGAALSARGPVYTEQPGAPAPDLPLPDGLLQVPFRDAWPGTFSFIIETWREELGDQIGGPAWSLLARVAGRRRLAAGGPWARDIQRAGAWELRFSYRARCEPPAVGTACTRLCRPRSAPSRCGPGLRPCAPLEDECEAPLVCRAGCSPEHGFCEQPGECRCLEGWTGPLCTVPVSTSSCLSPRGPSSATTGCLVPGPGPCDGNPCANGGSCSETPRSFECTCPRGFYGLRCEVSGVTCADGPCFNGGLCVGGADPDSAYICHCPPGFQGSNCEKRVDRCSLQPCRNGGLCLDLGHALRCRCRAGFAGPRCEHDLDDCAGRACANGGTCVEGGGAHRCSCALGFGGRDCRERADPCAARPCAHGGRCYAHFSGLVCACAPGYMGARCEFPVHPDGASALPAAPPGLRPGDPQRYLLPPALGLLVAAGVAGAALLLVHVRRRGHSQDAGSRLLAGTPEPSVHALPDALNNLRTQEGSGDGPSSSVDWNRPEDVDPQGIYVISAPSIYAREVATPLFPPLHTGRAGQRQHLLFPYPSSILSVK
# Description: Affinity Determination by Surface Plasmon Resonance (SPR). SPR studies were performed on the compounds disclosed herein using the following protocol.
# The binding affinity and binding kinetic parameters at 25° C. were determined using Biacore S200 or biacore 8K instrument. Biotinylated target ligand human DLL3 was immobilized on a streptavidin sensor chip. A reference surface was set up for nonspecific binding and refractive index changes. For analysis of the kinetics of interactions, varying concentrations of samples were injected at a flow rate of 100 μL/min using running buffer containing 20 mM phosphate buffer with 2.7 mM KCl, 137 mM NaCl, 0.05% Surfactant P20 and 2% DMSO. Sensorgram curves were fitted with 1:1 binding model, and affinity and kinetic parameters were obtained using Biacore Insight evaluation 4.0. software.
# SHP-77 tumors = assay: Ex vivo biodistribution of radiolabeled peptides in nude mice bearing SHP-77 tumors; conditions: [^177Lu]Lu labelling; nude mice bearing SHP-77 tumors (n = 3); 24 hours post-injection; intravenous
# Description: [^177Lu]LuCl3 was received from venders in HCl solution. For every mCi of [^177Lu]LuCl3 added to the reaction vial (1.5 mL Eppendorf vial), ammonium acetate buffer (0.2 M, pH 4.9, 100 μL, containing 1% w/v ascorbic acid and 6% v/v ethanol) and peptide conjugate (1 nmol also referred to herein as “chelator-peptides”) was added. A peptide conjugate of the present disclosure is also referred to herein as a “chelator-peptide”. The pH of the solution was determined to be approximately 5 by using pH strips. The reaction vial was incubated at 80° C., 700 RPM for 17-20 minutes. A sample from the reaction was analyzed by RP-HPLC using an Agilent Infinity II 1260 HPLC to determine reaction completion and radiochemical purity of [^177Lu]Lu-chelator-peptide. HPLC conditions: Waters XBridge BEH C18 Column, 130 A, 3.5 um, 4.6 mm×250 mm; mobile phase: Solvent A=water (with 0.1% formic acid), solvent B=acetonitrile (with 0.1% formic acid). Gradients: 25-45% B in 10 minutes, 45-65% B in 12 minutes, 65-90% in 6 minutes at a flow rate of 0.5 mL/min. Required amounts of the product was formulated in 1% PBSA for cell studies.
# Mice were intravenously injected (via the lateral tail vein) with a bolus dose of the radiolabeled peptides for ex vivo biodistribution studies when tumor volumes were in range of 200-400 mm^3 for xenograft mice and when age of the mice was 5-7 weeks for tumor naïve mice studies. To assess the amount of radionuclide injected into individual mice the syringe was assayed in a dose calibrator before and after injection for [^177Lu]Lu-peptide.
# Mice were euthanized at pre-determined time points and selected tissues were resected and collected into pre-weighed tubes. The tubes were then reweighed post resection, the difference giving the weight of each tissue. Radioactivity in each tissue was measured using a gamma counter. Counts were decay corrected to the time of injection and percentage of injected activity per gram (% IA/g) was calculated for each tissue based on the injected activity into each individual mouse. Injected activity was converted to counts based on the sensitivity of the gamma counter. The counts in tissue were then converted to the percentage of injected activity and this was divided by the mass of tissue to give % IA/g.
SMILES,Kd (human DLL3),kidney uptake (% IA/g) (SHP-77 tumors),tumor uptake (% IA/g) (SHP-77 tumors)
"CC[C@H](C)[C@H](NC(=O)[C@@H](NC(=O)[C@H](Cc1c[nH]c2ccccc12)NC(=O)CCCCCNC(=O)CN1CCN(CC(=O)O)CCN(CC(=O)O)CCN(CC(=O)O)CC1)[C@@H](C)O)C(=O)N[C@H]1CSSC[C@@H](C(=O)N[C@@H](Cc2c[nH]c3ccccc23)C(=O)N2CCC[C@@H]2C(N)=O)NC(=O)[C@H](CC(=O)O)NC(=O)[C@H](Cc2cnc[nH]2)NC(=O)[C@H](Cc2c[nH]c3ccccc23)NC(=O)[C@H](CC(N)=O)NC(=O)[C@H](CC(N)=O)NC1=O [compound 18, DOTA-Ahx-W-T-I-C(3)-N-N-W-H-D-C(3)-W-P-CONH2] ({DOTA-Ahx}-WTICNNWHDCW[dP]-NH2; disulfide 4-10)",1 to 10 nM,D (% IA/g > 10 in kidney),A (0 < % IA/g ≤ 5 in tumor)
"CC[C@H](C)[C@H](NC(=O)[C@@H](NC(=O)[C@H](Cc1c[nH]c2ccccc12)NC(=O)CC[C@H](NC(=O)CC[C@H](NC(=O)CC[C@H](NC(=O)CN1CCN(CC(=O)O)CCN(CC(=O)O)CCN(CC(=O)O)CC1)C(=O)O)C(=O)O)C(=O)O)[C@@H](C)O)C(=O)N[C@H]1CSSC[C@@H](C(=O)N[C@@H](Cc2c[nH]c3ccccc23)C(=O)N2CCC[C@H]2C(N)=O)NC(=O)[C@H](CC(=O)O)NC(=O)[C@H](Cc2c[nH]cn2)NC(=O)[C@H](Cc2c[nH]c3ccccc23)NC(=O)[C@H](CC(N)=O)NC(=O)[C@H](CC(N)=O)NC1=O [compound 82, DOTA-(gE)3-W-T-I-C(3)-N-N-W-H-D-C(3)-W-P-CONH2] ({DOTA-γGlu-γGlu-γGlu}-WTICNNWHDCWP-NH2; disulfide 4-10)",,D (% IA/g > 10 in kidney),A (0 < % IA/g ≤ 5 in tumor)
